Reference: US20100197600A1, “USE OF THE PEPTIDE HIS-SER-LEU-GLY-LYS-TRP-LEU-GLY-HIS-PRO-ASP-LYS-PHE ALONE OR IN COMBINATION WITH THE PEPTIDE PRO-GLY-THR-CYS-GLU-ILE-CYS-ALA-TYR-ALA-ALA-CYS-THR-GLY-CYS-OH AS A THERAPEUTIC AGENT” (priority 2007, published 2010)
No end group written: not given here.

Legend:
[1] = test system: Primary Human endothelial cells (HUVEC); assay: Endothelial cell migration assay; format: cell-based; conditions: 10 micrograms per ml, 22 hours
Streptococcus pneumoniae = Streptococcus pneumoniae assay; conditions: 10 micrograms per ml; visual reading
HUVEC = assay: Endothelial tube formation assay; format: cell-based, human; conditions: 10 micrograms per ml, 20 hours
Text: Positive control wes vehicle only.

[2] = test system: hepatitis B virus (HBV) ayw strain; assay: HBV experimental assay system (secreted HBV DNA, TaqMan PCR); format: cell-based; conditions: 10 micrograms per ml; HepG2-2.2.15 cells; HBV DNA after six days
HCMV strain AD169 = assay: HCMV plaque formation assay in MRC-5 cells; conditions: for inhibition of HCMV plaque formation as compared to the virus control experiment: 10 micrograms per ml, MRC-5 cells, 7-10 days
murine spleen cells = assay: Th1/Th2 cytokine profiling assay; format: cell-based, mouse; conditions: 10 micrograms per ml; Ovalbumin-restimulated murine spleen cells; 72 hours
HIV-1IIIB = assay: HIV-1 antiviral (cytopathic effect) assay in CEM-SS cells; conditions: for reduction of the cytopathic effect (CPE) in HIV-1 infected CEM-SS cells: 10 micrograms per ml, HIV-1IIIB, MTS readout; for antiviral activity of positive control compounds: HIV-1IIIB in CEM-SS cells

Molecule | inhibition of the migration of human endothelial cells [1] | inhibition of the growth of Streptococcus pneumoniae (Streptococcus pneumoniae) | inhibition of the tube formation of human endothelial cells (HUVEC) | inhibition of HBV replication as compared to the virus control infection [2] | inhibition of HCMV plaque formation as compared to the virus control experiment (HCMV strain AD169) | change of the production of IL-5 (murine spleen cells) | decrease of the production of IFN-γ (murine spleen cells) | increase (induction) of the production of TNF-α (murine spleen cells) | increase of the production of IL-2 (murine spleen cells) | increase of the production of IL-4 (murine spleen cells) | reduction of the cytopathic effect (CPE) in HIV-1 infected CEM-SS cells (HIV-1IIIB) | antiviral activity of positive control compounds (HIV-1IIIB) | antiviral activity of positive control compound (HCMV strain AD169; positive control, HCMV in MRC-5 cells)
Pro-Gly-Thr-Cys-Glu-Ile-Cys-Ala-Tyr-Ala-Ala-Cys-Thr-Gly-Cys-OH (PGTCEICAYAACTGC-OH; cysteine pairing not given here) [Peptide 2] | 24% | no effect | 10% | 21.7% | did not inhibit | did not significantly change | 38% | did not significantly change | 35.5% | 43.8% | 13.2% |  | 
CC(C)(C)NC(=O)[C@@H]1CN(Cc2cccnc2)CCN1C[C@@H](O)C[C@@H](Cc1ccccc1)C(=O)N[C@H]1c2ccccc2C[C@H]1O [indinavir, reference compound] |  |  |  |  |  |  |  |  |  |  |  | expected levels of antiviral activity | 
Nc1nc(O)c2ncn(COC(CO)CO)c2n1 [Ganciclovir, reference compound] |  |  |  |  |  |  |  |  |  |  |  |  | expected levels of antiviral activity
His-Ser-Leu-Gly-Lys-Trp-Leu-Gly-His-Pro-Asp-Lys-Phe (HSLGKWLGHPDKF; printed: His-Ser-Leu-Gly-Lys-Trp-Leu-Gly-His-Pro-Asp-Lys-Phe) [Peptide 1] | 12% | 100% | 10% | 43.4% | did not inhibit | did not significantly change | did not significantly change | 21.2% | 106.5% | 117.8% | 43.9% |  | 
Cc1cn([C@H]2C[C@H](N=[N+]=[N-])[C@@H](CO)O2)c(=O)[nH]c1=O [AZT, zidovudine, reference compound] |  |  |  |  |  |  |  |  |  |  |  | expected levels of antiviral activity | 
